This passage reports Km results from US6150382A, “Thio acid derived monocyclic n-heterocyclics as anticoagulants” (Berlex Laboratories, Inc., priority 1999, dated 2000).

As usually defined, the Km is the concentration of substrate that gives half-maximal velocity.

Where a SMILES comes first, the peptide text is derived from it. [ ]: non-standard residue; d: D form. The star is where a group is joined. pNA = O=[N+]([O-])c1ccc(N*)cc1

In one experiment the target is T1, Human thrombin (Homo sapiens, UniProt P00734).
T1 construct: forms the prothrombinase complex which converts prothrombin to thrombin; purchased Enzyme Research Lab
The experiment can be described thus: In vitro chromogenic assay for thrombin. The following applies: substrate concentration stated equal to Km under the present assay conditions; pH 7.5, ambient temperature; read-out: Km (S2302). The format is biochemical. On the procedure:
(§1) The activities were determined as an initial rate of cleavage of the peptide p-nitroanilide by the enzyme. The cleavage product, p-nitroaniline, absorbs at 405 nm with a molar extinction coefficient of 9920M^-1 cm^-1.
(§2) 50 mM Tris HCl, 150 mM NaCl, 2.5 mM CaCl2, and
2. Human thrombin stock solution: Stored at -80° C. (working solution (2×): 1200 ng/mL or 40 nM in assay buffer, prepare prior to use).
2. S2302 (Thrombin assay) stock solution: 10 mM in deionized H2 O, stored at 4° C. (working solution (4×): 1200, μM in assay buffer).
(§3) Assays were performed in 96-well microtiter plates in a total volume of 200 μl. […] Concentrations of the standard inhibitor compound in the assay were from 5 μM to 0.021 μM in 1 to 3 dilution. Concentration of the test compounds in the assay typically were from 10 μM to 0.041 μM in 1 to 3 dilution. For potent test compounds, the concentrations used in the factor Xa assay were further diluted 100 fold (100 nM to 0.41 nM) or 1000 fold (10 nM to 0.041 nM). […]
(§4) The enzyme kinetics were measured at 405 nm at 10 seconds intervals for five minutes in a THERMOmax plate reader at ambient temperature.
(§5) Enzyme rates were calculated as mOD/min based on the first two minutes readings. The IC50 values were determined by fitting the data to the log-logit equation (linear) or the Morrison equation (non-linear) with an EXCEL spread-sheet. […]

The target of experiment [1] is T2, Human tissue plasminogen activator (tPA) (Two chains, Sigma) (Homo sapiens, UniProt P00750).
T2 construct: purchased Sigma
The experiment is described as follows: In vitro chromogenic assay for tissue plasminogen activator. Format: biochemical. The settings on record: substrate concentration stated equal to Km under the present assay conditions; pH 7.5, ambient temperature; read-out: Km (S2288). On the procedure:
as §1, §2
3. Human tissue plasminogen activator (tPA) (Two chains, Sigma) stock solution: 1 mg/mL, stored at -80° C. (working solution (2×): 1361 ng/mL in assay buffer, prepare prior to use).
3. S2288 (tPA assay) stock solution: 10 mM in deionized H2 O, stored at 4° C. (working solution (4×): 1484 μM in assay buffer).
as §3, §4, §5

T2 sequence (P00750 311-562 limits assumed): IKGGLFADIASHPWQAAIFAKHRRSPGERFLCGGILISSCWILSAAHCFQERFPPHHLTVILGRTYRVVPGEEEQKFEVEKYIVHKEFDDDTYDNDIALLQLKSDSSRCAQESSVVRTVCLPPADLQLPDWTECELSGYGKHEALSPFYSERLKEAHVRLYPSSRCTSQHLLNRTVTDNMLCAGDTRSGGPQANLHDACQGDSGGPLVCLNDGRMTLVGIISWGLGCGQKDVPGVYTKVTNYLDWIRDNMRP
T2 sequence (P00750 36-310 partner limits assumed): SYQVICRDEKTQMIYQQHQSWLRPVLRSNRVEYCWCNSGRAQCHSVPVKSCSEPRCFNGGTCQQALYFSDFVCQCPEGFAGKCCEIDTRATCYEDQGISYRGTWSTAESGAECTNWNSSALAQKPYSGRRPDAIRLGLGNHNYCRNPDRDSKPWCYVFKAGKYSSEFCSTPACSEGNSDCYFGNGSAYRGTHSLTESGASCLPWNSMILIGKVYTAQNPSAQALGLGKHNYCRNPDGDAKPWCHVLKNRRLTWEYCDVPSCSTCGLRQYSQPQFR

In the case of `N=C(N)NCCC[C@H](NC(=O)[C@H](Cc1ccccc1)NC(=O)[C@H]1CCCN1)C(=O)Nc1ccc([N+](=O)[O-])cc1` [Example S2302] (H-[dP]-Phe-Arg-pNA), on Human thrombin, the Michaelis constant (Km) worked out at 300 µM.
Take `CC[C@@H](C)[C@@H](N)C(=O)N1CCC[C@H]1C(=O)N[C@@H](CCCN=C(N)N)C(=O)Nc1ccc([N+](=O)[O-])cc1` [Example S2288] (H-[dI]-Pro-Arg-pNA): in experiment [1], the Km came out at 371 µM.
